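A five-concentration, 48-hour dose response in 96-well plates underlies each endpoint, interpolated linearly between surrounding concentrations. Abbreviation: GI50, concentration required for 50% inhibition of growth.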 Activity calls are given as the source filed them. Cut-off read from the data, not from the text of the source: active = GI50 up to about 1.1 µM and inactive = higher.
Assays:
Assay in all cases: NCI tumour cell line growth inhibition, 48 h
CCRF-CEM = test system: CCRF-CEM
M19-MEL = test system: M19-MEL
SN12C = test system: SN12C
LXFL 529 = test system: LXFL 529
786-0 = test system: 786-0
SK-MEL-2 = test system: SK-MEL-2
MDA-N = test system: MDA-N
PC-3 = test system: PC-3
RXF 393 = test system: RXF 393
COLO 205 = test system: COLO 205
HOP-62 = test system: HOP-62
MOLT-4 = test system: MOLT-4
SK-OV-3 = test system: SK-OV-3
OVCAR-3 = test system: OVCAR-3
UACC-62 = test system: UACC-62
Malme-3M = test system: Malme-3M
T47D = test system: T47D
SF-268 = test system: SF-268
SF-539 = test system: SF-539
NCI/ADR-RES = test system: NCI/ADR-RES

Structure (SMILES)	GI50 (CCRF-CEM)	GI50 (M19-MEL)	GI50 (SN12C)	GI50 (LXFL 529)	GI50 (786-0)	GI50 (SK-MEL-2)	GI50 (MDA-N)	GI50 (PC-3)	GI50 (RXF 393)	GI50 (COLO 205)	GI50 (HOP-62)	GI50 (MOLT-4)	GI50 (SK-OV-3)	GI50 (OVCAR-3)	GI50 (UACC-62)	GI50 (Malme-3M)	GI50 (T47D)	GI50 (SF-268)	GI50 (SF-539)	GI50 (NCI/ADR-RES)
CCSC(=O)N1c2ccc(OC)cc2C=CC1C#N (configuration not stated)	0.00313 µM (active)	< 0.01 µM (active)	0.00782 µM (active)	< 0.01 µM (active)	0.00344 µM (active)	< 0.01 µM (active)	3.06 nM (active)	3.64 nM (active)	100 nM (active)	0.00298 µM (active)	8.41 nM (active)	3.45 nM (active)	0.00425 µM (active)	0.001 µM (active)	8.77 nM (active)	100 nM (active)	228 µM (inactive)	1.13 nM (active)	1.77 nM (active)	1.31 nM (active)
O=c1nc2n(c3nsnc13)CCO2	> 100 µM (inactive)	> 100 µM (inactive)	> 100 µM (inactive)	> 100 µM (inactive)	> 100 µM (inactive)	> 100 µM (inactive)	–	–	> 100000 nM (inactive)	> 100 µM (inactive)	> 100000 nM (inactive)	> 100000 nM (inactive)	> 100 µM (inactive)	> 100 µM (inactive)	> 100000 nM (inactive)	> 100000 nM (inactive)	–	> 100000 nM (inactive)	> 100000 nM (inactive)	–
COC(=O)c1c(-c2ccccc2)cc2c3cc(-c4ccccc4)c(C(=O)OC)n3c3ccccc3n12	> 100 µM (inactive)	> 100 µM (inactive)	> 100 µM (inactive)	> 100 µM (inactive)	> 100 µM (inactive)	> 100 µM (inactive)	–	–	> 44800 nM (inactive)	> 100 µM (inactive)	> 100000 nM (inactive)	> 100000 nM (inactive)	> 100 µM (inactive)	> 100 µM (inactive)	> 100000 nM (inactive)	> 100000 nM (inactive)	–	> 100000 nM (inactive)	> 100000 nM (inactive)	–
Cc1c(N)nc(C2CC(=O)N2CC(N)C(N)=O)nc1C(=O)NC(C(=O)NC(C)C(O)C(C)C(=O)NC(C(=O)NCCc1nc(-c2nc(C(=O)NCCNCC(C)O)cs2)cs1)C(C)O)C(OC1OC(CO)C(O)C(O)C1OC1OC(CO)C(O)C(OC(N)=O)C1O)c1c[nH]cn1 (configuration not stated)	7.74 µM (inactive)	5.04 µM (inactive)	1.45 µM (inactive)	> 38 µM (inactive)	33.2 µM (inactive)	38.1 µM (inactive)	> 50000 nM (inactive)	> 50000 nM (inactive)	34.4 nM (active)	3.08 µM (inactive)	55.6 nM (active)	701 nM (active)	8.41 µM (inactive)	6.56 µM (inactive)	441 nM (active)	336 nM (active)	> 5 µM (inactive)	500 nM (active)	< 29.5 nM (active)	31000 nM (inactive)
Nc1ccc(Cn2ccc3c4c(N)nc(N)nc4ccc32)cc1	< 0.01 µM (active)	0.0834 µM (active)	< 0.0207 µM (active)	0.0119 µM (active)	< 0.0252 µM (active)	1.17 µM (inactive)	< 10 nM (active)	12.7 nM (active)	118 nM (active)	0.628 µM (active)	14.1 nM (active)	< 12.2 nM (active)	12.3 µM (inactive)	0.431 µM (active)	< 10 nM (active)	137 nM (active)	0.818 µM (active)	< 15.6 nM (active)	< 18.4 nM (active)	242 nM (active)

From ChEMBL document CHEMBL1201862, “PubChem BioAssay data set” (2004)
